According to the CheMixHub ionic liquid set:

Experiment: xn = mol fraction of the nth substance listed

O=S(=O)([N-]S(=O)(=O)C(F)(F)F)C(F)(F)F.[Li+] + CCCC[N+]1(C)CCCC1.O=S(=O)([N-]S(=O)(=O)C(F)(F)F)C(F)(F)F + O
viscosity [mPa·s], 100 kPa
Conditions | 293.15 K | 298.15 K | 303.15 K | 313.15 K | 323.15 K | 333.15 K | 343.15 K | 353.15 K | 363.15 K
x1 = 0.2745, x2 = 0.2745 | 117 | 85.1 | 66.1 | 43 | 29.5 | 20.8 | 15.8 | 11.9 | 9.38
x1 = 0.3106, x2 = 0.2745 | 144 | 110 | 85.8 | 52.2 | 34.6 | 24.4 | 17.9 | 13.6 | 10.6
x1 = 0.3509, x2 = 0.2745 | 242 | 179 | 135 | 82.5 | 49.1 | 33.5 | 23.9 | 17.7 | 13.6
x1 = 0.3868, x2 = 0.2745 | 437 | 334 | 246 | 141 | 87.5 | 52.3 | 35.9 | 25.8 | 19.3
x1 = 0.4308, x2 = 0.2745 | 599 | 421 | 304 | 171 | 104 | 62.1 | 42 | 29.9 | 21.5

CCCC[N+]1(C)CCCC1.O=S(=O)([O-])C(F)(F)F + CC#N
viscosity [mPa·s], 101 kPa
Conditions | 288.15 K | 293.15 K | 298.15 K
x1 = 0.0008322 | 0.377 | 0.358 | 0.34
x1 = 0.001153 | 0.379 | 0.359 | 0.342
x1 = 0.001607 | 0.381 | 0.361 | 0.345
x1 = 0.002041 | 0.383 | 0.364 | 0.347
x1 = 0.002439 | 0.386 | 0.366 | 0.349
x1 = 0.002832 | 0.388 | 0.368 | 0.351
x1 = 0.003272 | 0.39 | 0.369 | 0.353
x1 = 0.003684 | 0.392 | 0.372 | 0.355
x1 = 0.004131 | 0.394 | 0.374 | 0.357
x1 = 0.00964 | 0.423 | 0.404 | 0.386
x1 = 0.01639 | 0.458 | 0.437 | 0.417
x2 = 0.9756 | 0.498 | 0.473 | 0.45

OCCO + CC[n+]1ccn(C)c1.F[B-](F)(F)F
viscosity [mPa·s]
Conditions | 293.15 K | 298.15 K | 323.15 K | 333.15 K | 343.15 K
100 kPa, x1 = 1 | 21.4 | 17.4 | 7.12 | – | 4.1
101 kPa, x2 = 0 | – | – | – | 5.19 | –
